These results are taken from patent US9416111B2, “Substituted diazine and triazine spleen tyrosine kinease (Syk) inhibitors” (Merck Sharp & Dohme Corp., priority 2012, dated 2016).

The assay deals with T1, recombinant human GST-SYK (Homo sapiens, UniProt P43405).
T1 construct: purchased Carna Biosciences 08-176
Description: Homogeneous Time-Resolved Fluorescence (HTRF) assay for the recombinant human Syk enzyme. In kind it is biochemical. The conditions noted are these: GST-hSYK 5 pM, ATP 25 μM, IC50 rated in classes, read-out: rhSYK Activity. On the procedure:
Homogeneous Time-Resolved Fluorescence (HTRF) Assay for the Recombinant Human Syk Enzyme
A recombinant GST-hSYK fusion protein was used to measure potency of compounds to inhibit human Syk activity. The recombinant human GST-SYK (Carna Biosciences #08-176) (5 pM final concentration) was incubated with various concentrations of the inhibitor diluted in DMSO (0.1% final concentration) for 10 minutes at room temperature in 15 mM Tris-HCl (pH 7.5), 0.01% tween 20, 2 mM DTT in 384 well plate format. To initiate the reaction the biotinylated substrate peptide (250 nM final concentration) that contains the phosphorylation site for Syk was added with magnesium (5 mM final concentration) and ATP (25 μM final concentration). Final volume of the reaction was 10 μL. Phosphorylation of the peptide was allowed to proceed for 45′ at room temperature. To quench the reaction and detect the phosphorylated product, 2 nM of a Europium-anti-phosphotyrosine antibody (Perkin Elmer #AD0161) and 70 nM SA-APC (Perkin-Elmer #CR130-100) were added together in 15 mM Tris pH 7.5, 40 mM EDTA, 0.01% tween 20. Final volume of the quenching solution was 10 μL. The resulting HTRF signal was measured after 30 minutes on an EnVision (Perkin-Elmer) reader using a time-resolved fluorescence protocol.
A general note: Time-resolved FRET reads energy transfer from a long-lived donor to a nearby acceptor.
On to `CCOC(=O)CCc1cnc(-c2cc(C)cc(Nc3nccc(C(F)(F)F)n3)c2)cn1` [Example 3.7, ethyl 3-[5-(3-methyl-5-{[4-(trifluoromethyl)pyrimidin-2-yl]amino}phenyl)pyrazin-2-yl]propanoate], for which the IC50 was 100 to 1000 nM.

As to `Cc1cc(Nc2nccc(C(F)(F)F)n2)cc(-c2cnc(NC3CCS(=O)(=O)C3)nc2)c1` (stereo not shown) [Example 2.16, N-(3-{2-[(1,1-dioxidotetrahydrothiophen-3-yl)amino]pyrimidin-5-yl}-5-methylphenyl)-4-(trifluoromethyl)pyrimidin-2-], the IC50 was under 100 nM.

As for `COCCNc1ncc(-c2cc(C)cc(Nc3nccc(C(F)(F)F)n3)c2)cn1` [Example 1.4, N-(3-{2-[(2-methoxyethyl)amino]pyrimidin-5-yl}-5-methylphenyl)-4-(trifluoromethyl)pyrimidin-2-amine], the IC50 was under 100 nM.

Regarding `Cc1cc(Nc2nccc(C(F)(F)F)n2)cc(-c2cnc(NCCCC(=O)O)nc2)c1` [Example 2.11, 4-{[5-(3-methyl-5-{[4-(trifluoromethyl)pyrimidin-2-yl]amino}phenyl)pyrimidin-2-yl]amino}butanoic acid], the IC50 is under 100 nM.

Regarding `Cc1cc(Nc2nccc(C(F)(F)F)n2)cc(-c2cnc(NC3(CO)CCCC3)nc2)c1` [Example 2.36, (1-{[5-(3-methyl-5-{[4-(trifluoromethyl)pyrimidin-2-yl]amino}phenyl)pyrimidin-2-yl]amino}cyclopentyl)methanol], the IC50 is under 100 nM.

`Cc1cc(Nc2nccc(C(F)(F)F)n2)cc(-c2cnc(NCc3cncn3C)nc2)c1` [Example 2.52, N-[3-methyl-5-(2-{[(1-methyl-1H-imidazol-5-yl)methyl]amino}pyrimidin-5-yl)phenyl]-4-(trifluoromethyl)pyrimidin-2-amine]: the IC50 is under 100 nM.

As to `O=C(O)CCc1cnc(-c2cccc(Nc3nccc(C(F)(F)F)n3)c2)cn1` [Example 3.4, 3-[5-(3-{[4-(trifluoromethyl)pyrimidin-2-yl]amino}phenyl)pyrazin-2-yl]propanoic acid], the IC50 fell in the range of 100 to 1000 nM.

On to `Cc1cc(Nc2nccc(C(F)(F)F)n2)cc(-c2cnc(N3CCCC(C)(O)C3)nc2)c1` (stereo not shown) [Example 2.27, 3-methyl-1-[5-(3-methyl-5-{[4-(trifluoromethyl)pyrimidin-2-yl]amino}phenyl)pyrimidin-2-yl]piperidin-3-ol], for which the IC50 is under 100 nM.

As to `Cc1cc(Nc2nccc(C)n2)cc(-c2ccc(CCC(=O)O)nn2)c1` [Example 3.41, 3-(6-{3-methyl-5-[(4-methylpyrimidin-2-yl)amino]phenyl}pyridazin-3-yl)propanoic acid], the IC50 is 100 to 1000 nM.

Consider `CCOC(=O)CCc1cnc(-c2cc(C)cc(Nc3nccc(C)n3)c2)cn1` [Example 3.9, ethyl 3-(5-{3-methyl-5-[(4-methylpyrimidin-2-yl)amino]phenyl}pyrazin-2-yl)propanoate], for which the IC50 is 100 to 1000 nM.

For the molecule `CCOC(=O)CCc1cncc(-c2cc(C)cc(Nc3nccc(C(F)(F)F)n3)c2)n1` [Example 3.17, ethyl 3-[6-(3-methyl-5-{[4-(trifluoromethyl)pyrimidin-2-yl]amino}phenyl)pyrazin-2-yl]propanoate], the IC50 fell in the range of 100 to 1000 nM.

As for `CCOC(=O)CCc1ccc(-c2cc(C)cc(Nc3nccc(C(F)(F)F)n3)c2)nn1` [Example 3.27, ethyl 3-[6-(3-methyl-5-{[4-(trifluoromethyl)pyrimidin-2-yl]amino}phenyl)pyridazin-3-yl]propanoate], the IC50 fell in the range of 100 to 1000 nM.

In the case of `Cc1cc(Nc2nccc(C(F)(F)F)n2)cc(-c2cnc(NC3(C(=O)O)CCCC3)nc2)c1` [Example 2.76, 1-{[5-(3-methyl-5-{[4-(trifluoromethyl)pyrimidin-2-yl]amino}phenyl)pyrimidin-2-yl]amino}cyclopentanecarboxylic acid], the IC50 was under 100 nM.

As to `Cc1cc(Nc2nccc(C(F)(F)F)n2)cc(-c2cnc(N[C@@H]3CCC(=O)NC3)nc2)c1` [Example 2.72, (5R)-5-{[5-(3-methyl-5-{[4-(trifluoromethyl)pyrimidin-2-yl]amino}phenyl)pyrimidin-2-yl]amino}piperidin-2-one], the IC50 was under 100 nM.

For `Cc1cc(Nc2nccc(C(F)(F)F)n2)cc(-c2ccc(N3CCC(O)CC3)nn2)c1` [Example 3.30, 1-[6-(3-methyl-5-{[4-(trifluoromethyl)pyrimidin-2-yl]amino}phenyl)pyridazin-3-yl]piperidin-4-ol], the IC50 lay within 100 to 1000 nM.

Regarding `COCC1CN(c2ncc(-c3cc(C)cc(Nc4nccc(C(F)(F)F)n4)c3)cn2)CCO1` (stereo not shown) [Example 2.25, N-(3-{2-[2-(methoxymethyl)morpholin-4-yl]pyrimidin-5-yl}-5-methylphenyl)-4-(trifluoromethyl)pyrimidin-2-amine], the IC50 lay in the range of 100 to 1000 nM.

`Cc1cc(Nc2nccc(C(F)(F)F)n2)cc(-c2cnc(NC3CCCCNC3=O)nc2)c1` (stereo not shown) [Example 2.42, 3-{[5-(3-methyl-5-{[4-(trifluoromethyl)pyrimidin-2-yl]amino}phenyl)pyrimidin-2-yl]amino}azepan-2-one]: the IC50 was under 100 nM.

Take `Cc1cc(Nc2nccc(C(F)(F)F)n2)cc(-c2cnc(N(CCO)CCO)nc2)c1` [Example 2.31, 2,2′-{[5-(3-methyl-5-{[4-(trifluoromethyl)pyrimidin-2-yl]amino}phenyl)pyrimidin-2-yl]imino}diethanol]: the IC50 is under 100 nM.

Regarding `Cc1cc(Nc2nccc(C(F)(F)F)n2)cc(-c2cnc(CCC(=O)O)nc2)c1` [Example 3.62, 3-[5-(3-methyl-5-{[4-(trifluoromethyl)pyrimidin-2-yl]amino}phenyl)pyrimidin-2-yl]propanoic acid], the IC50 is under 100 nM.

Take `CCN1CCN(c2ncc(-c3cc(C)cc(Nc4nccc(C(F)(F)F)n4)c3)cn2)CC1` [Example 2.55, N-{3-[2-(4-ethylpiperazin-1-yl)pyrimidin-5-yl]-5-methylphenyl}-4-{trifluoromethyl)pyrimidin-2-amine]: the IC50 is under 100 nM.

As for `Cc1cc(Nc2nccc(C(F)(F)F)n2)cc(-c2cnc(NCCc3c[nH]cn3)nc2)c1` [Example 2.33, N-[3-(2-{[2-(1H-imidazol-4-yl)ethyl]amino}pyrimidin-5-yl)-5-methylphenyl]-4-(trifluoromethyl)pyrimidin-2-amine], the IC50 is under 100 nM.

For `Cc1cc(Nc2nccc(C)n2)cc(-c2cc(CCC(=O)O)ncn2)c1` [Example 3.52, 3-(6-{3-methyl-5-[(4-methylpyrimidin-2-yl)amino]phenyl}pyrimidin-4-yl)propanoic acid], the IC50 lay in the range of 1000 to 10000 nM.

`Cc1cc(Nc2nccc(C(F)(F)F)n2)cc(-c2cnc(NCC(C)O)nc2)c1` (stereo not shown) [Example 2.60, 1-{[5-(3-methyl-5-{[4-(trifluoromethyl)pyrimidin-2-yl]amino}phenyl)pyrimidin-2-yl]amino}propan-2-ol]: the IC50 was under 100 nM.

For the molecule `COCC1CCN(c2ncc(-c3cc(C)cc(Nc4nccc(C(F)(F)F)n4)c3)cn2)C1` (stereo not shown) [Example 2.66, N-(3-{2-[3-(methoxymethyl)pyrrolidin-1-yl]pyrimidin-5-yl}-5-methylphenyl)-4-(trifluoromethyl)pyrimidin-2-amine], the IC50 lay in the range of 100 to 1000 nM.

Consider `Cc1cc(Nc2nccc(C(F)(F)F)n2)cc(-c2cnc(NCCS(N)(=O)=O)nc2)c1` [Example 2.26, 2-{[5-(3-methyl-5-{[4-(trifluoromethyl)pyrimidin-2-yl]amino}phenyl)pyrimidin-2-yl]amino}ethanesulfonamide], for which the IC50 is under 100 nM.
